Common to all, as to format: in vivo
For experiment [1], the system named is Pyricularia oryzae. Description: whole plant or invertebrate. The conditions noted are these: Pyricularia oryzae, read-out: Observed Efficacy.
The subject of experiment [2] is Alternaria solani. Description: Alternaria solani test in tomato (preventive, glasshouse). The conditions noted are these: for pest or weed control at 1 ppm / pest or weed control at 5 ppm / pest or weed control at 20 ppm / pest or weed control at 0.05 ppm / pest or weed control at 0.1 ppm: Alternaria solani; for pest or weed control at 1 ppm / pest or weed control at 5 ppm / pest or weed control at 20 ppm / Observed Efficacy (%): preventive; for pest or weed control at 0.05 ppm / pest or weed control at 0.1 ppm: preventive spray.

Experiment [3] has as its system Erysiphe cichoracearum. Put plainly: Erysiphe cichoracearum test in cucumber (preventive, glasshouse). Particulars: single compound.
The subject of experiment [4] is Phakopsora pachyrhizi. Put plainly: Phakopsora pachyrhizi test in soybean (preventive, glasshouse). The conditions noted are these: single compound; for pest or weed control at 0.0001 ppm: Conc. 0.0001 ppm; for pest or weed control at 0.0001 ppm / pest or weed control at 0.001 ppm / pest or weed control at 0.01 ppm / Observed Efficacy (%): soybean, preventive; for pest or weed control at 0.001 ppm: Conc. 0.001 ppm; for pest or weed control at 0.01 ppm: Conc. 0.01 ppm.

Experiment [5] relates to Septoria nodorum. Description: Parastagonospora nodorum/Septoria nodorum/Stagnospora nodorum test in wheat (preventive, glasshouse). The conditions noted are these: Parastagonospora nodorum, single compound, read-out: Observed Efficacy (%). Put shortly:
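Greenhouse-raised young wheat sprayed preventively at stated rates, inoculated one day later with 2.8×10^6 Stagnospora nodorum inoculum, held at 22-25° C and 90-100% RH. Disease severity (0-100%) rated 3, 7 and 10 days after application; % control relative to untreated plants, with phytotoxicity also recorded.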

In experiment [6] the test system is Botrytis cinerea. Put plainly: Botrytis cinerea test in tomato (preventive, glasshouse). Particulars: single compound, read-out: Observed Efficacy (%); for pest or weed control at 1 ppm: Conc. 1 ppm; for pest or weed control at 1 ppm / pest or weed control at 5 ppm / pest or weed control at 20 ppm: Botrytis cinerea in tomato, preventive; for pest or weed control at 5 ppm: Conc. 5 ppm; for pest or weed control at 20 ppm: Conc. 20 ppm.

The mark [7] stands for this setting: Golovinomyces cichoracearum, preventive spray on cucumber, read-out: Observed Efficacy (%).
[8] abbreviates: Phakopsora pachyrhizi, Table D4, read-out: Observed Efficacy (%).
The mark [9] stands for this setting: Phakopsora pachyrhizi, Table D5, read-out: Observed Efficacy (%).

Where two headings read alike, the source gives them in different places.

In the case of `CCN(C)C=Nc1cc(C)cc(Cc2cccc(F)c2)c1C` [Compound (I-4), N-ethyl-N′-(3-(3-fluorobenzyl)-2,5-dimethylphenyl)-N-methylformimidamide], the pest or weed control at 1 ppm in experiment [1] was 17%; in experiment [2] (Table B4, single compound, Conc. 1 ppm, read-out: Observed Efficacy (%)), 20%; in experiment [3] (setting [7]), 33%; in experiment [5], 20%; in experiment [6] (Table F4), 10%. The pest or weed control at 5 ppm in experiment [1] amounted to 23%; in experiment [2] (Table B4, single compound, Conc. 5 ppm, read-out: Observed Efficacy (%)) it was 27%; in experiment [3] (setting [7]), 63%; in experiment [5] it was 23%; in experiment [6] (Table F4) it was 17%. The pest or weed control at 20 ppm was determined as 33% in experiment [1]; 37% in experiment [2] (Table B4, single compound, Conc. 20 ppm, read-out: Observed Efficacy (%)); 27% in experiment [5]; 23% in experiment [6] (Table F4). Besides, the pest or weed control at 0.0001 ppm in experiment [4] (setting [8]) turned out to be 43%. The pest or weed control at 0.001 ppm in experiment [4] (setting [8]) was 47%. In experiment [4] (setting [8]), the pest or weed control at 0.01 ppm worked out at 59%.
In the case of `CCN(C)C=Nc1cc(F)cc(Cc2cccc(C)c2)c1C` [Compound (I-5), N-ethyl-N′-(5-fluoro-2-methyl-3-(3-methylbenzyl)phenyl)-N-methylformimidamide], the pest or weed control at 1 ppm in experiment [1] came out at 23%; in experiment [2] (single compound, 1 ppm, read-out: Observed Efficacy (%)), 13%; in experiment [3] (setting [7]) it was 23%; in experiment [5], 23%; in experiment [6] (Table F5) it was 53%. In addition, the pest or weed control at 5 ppm was determined as 37% in experiment [1]; 17% in experiment [2] (single compound, 5 ppm, read-out: Observed Efficacy (%)); 47% in experiment [3] (setting [7]); 33% in experiment [5]; 63% in experiment [6] (Table F5). The pest or weed control at 20 ppm came to 47% in experiment [1]; 27% in experiment [2] (single compound, 20 ppm, read-out: Observed Efficacy (%)); 77% in experiment [3] (Golovinomyces cichoracearum, 20 ppm, preventive spray on cucumber, read-out: Observed Efficacy (%)); 40% in experiment [5]; 73% in experiment [6] (Table F5). Further, the pest or weed control at 0.0001 ppm in experiment [4] (setting [9]) turned out to be 37%. For the same molecule, the pest or weed control at 0.001 ppm in experiment [4] (setting [9]) was 50%. Further, in experiment [4] (setting [9]), the pest or weed control at 0.01 ppm turned out to be 61%.
As to `O=C1c2ccccc2C(=O)N1SC(Cl)(Cl)Cl` [Folpet, folpet], the pest or weed control at 0.05 ppm in experiment [1] turned out to be 34%; in experiment [2] (single compound, 0.05 ppm, read-out: Observed Efficacy (%)) it was 12%; in experiment [2] (single compound, Conc. 0.05 ppm, read-out: Observed Efficacy), 12%; in experiment [3] (Golovinomyces cichoracearum, 0.05 ppm, cucumber, preventive, read-out: Observed Efficacy (%)) it was 24%; in experiment [4] (Phakopsora pachyrhizi, 0.05 ppm, preventive spray on soybean, read-out: Observed Efficacy (%)) it was 5%; in experiment [5] (0.05 ppm) it was 16%. Also, the pest or weed control at 0.05 ppm in experiment [6] (Botrytis cinerea, Conc. 0.05 ppm, preventive spray on tomato, % control vs untreated) was found to be 24%. Further, the pest or weed control at 0.1 ppm in experiment [1] was 39%; in experiment [2] (single compound, 0.1 ppm, read-out: Observed Efficacy (%)) it was 16%; in experiment [2] (single compound, Conc. 0.1 ppm, read-out: Observed Efficacy) it was 16%; in experiment [3] (Golovinomyces cichoracearum, 0.1 ppm, cucumber, preventive, read-out: Observed Efficacy (%)), 32%; in experiment [4] (Phakopsora pachyrhizi, 0.1 ppm, preventive spray on soybean, read-out: Observed Efficacy (%)), 12%; in experiment [5] (0.1 ppm), 21%. Moreover, the pest or weed control at 0.1 ppm in experiment [6] (Botrytis cinerea, Conc. 0.1 ppm, preventive spray on tomato, % control vs untreated) is 38%. The “Observed Efficacy (%)” value worked out at 12% in experiment [2] (Table B3, single compound, Conc. 0.05 ppm); 16% in experiment [2] (Table B3, single compound, Conc. 0.1 ppm); 16% in experiment [2] (Table B4, single compound, Conc. 0.1 ppm); 12% in experiment [2] (single compound, 0.05 ppm); 16% in experiment [2] (single compound, 0.1 ppm); 24% in experiment [3] (0.05 ppm, preventive spray on cucumber). In addition, the “Observed Efficacy (%)” value in experiment [3] (0.1 ppm, preventive spray on cucumber) came out at 32%; in experiment [4] (Conc. 0.05 ppm, Table D4), 5%; in experiment [4] (Conc. 0.05 ppm, Table D5), 5%; in experiment [4] (Conc. 0.1 ppm, Table D4) it was 12%; in experiment [4] (Conc. 0.1 ppm, Table D5) it was 12%.
